Measurements published in US7872051B2 (priority 2004, dated 2011).
Read-outs that look alike come from different tables or passages of the source.

What was measured:
[1] = tested on: HSV-1 (Herpes Simplex Virus type 1); test: Trial 2 virucidal assay, HSV-1 on Vero cells; type: cell-based; details: for Kill rate: gradient between the 1 minute and 5 minute time-points (FIG. 2)
Vero cells = details: 5 min exposure, count after 24 h vs cell only control, rounded to nearest 5
Protocol: (§1) PMD was tested at the following concentrations: • 2% w/v (20 mg/ml) • 1% w/v (10 mg/ml) • 0.5% w/v (5 mg/ml • 0.25% w/v (2.5 mg/ml)
(§2) Each PMD concentration was made up in 100% isopropyl and then sufficient cell infection media added such that the final concentration of isopropyl was always 10%.
(§3) The different concentrations were made up by taking into account the initial dilution of the compound that occurs in the toxicity assay (step 1) and virucidal assay (step 4). The dilution factors for both assays are 2 and 1.1, respectively.
(§4) Each of the four PMD concentrations was tested for toxicity on each of the three cell lines.
(§5) A “cell only” control was also implemented by following the same procedure but substituting PMD (step 1) with infection media.
(§6) The procedure for the toxicity assay was as follows: • 1) Cells (200 μl), at 2×10^6 cells/ml, were added to PMD (200 μl) and the reaction incubated for 5 minutes at room temperature. • 2) The reaction was terminated by the addition of infection media (3.6 ml) appropriate to the cell line. • 3) The terminated reaction (1 ml) was added, in triplicate, to the relevant wells of a 24-well plate. • 4) The cells were incubated for 24 hours at 37° C., 5% CO2. • 5) After the incubation period, the cells were trypsinised, the appropriate triplicate wells pooled together and a viable cell count performed using Trypan blue dye. • 6) The toxicity of PMD was determined by calculating the percentage cell survival of the test cells in comparison to the control cells.

[2] = tested on: influenza virus A/Sydney/5/97; test: Trial 1 virucidal assay of PMD (CPE on MDCK cells); type: cell-based
Urbani SARS = type: cell-based, Urbani SARS virus; details: for Kill rate: line gradient of FIG. 3
C1008 cells = details: 5 min exposure, count after 24 h vs cell only control, rounded to nearest 5
Protocol: as §1, §2, §3, §4, §5, §6

[3] = tested on: A/Sydney/5/97 (human influenza virus H3N2); test: Trial 2 virucidal assay, A/Sydney/5/97 on MDCK cells; type: cell-based; details: for Kill rate: line gradient of FIG. 4
Solubility in water = type: physicochemical
MDCK cells [4] = details: 5 min exposure, count after 24 h vs cell only control, rounded to nearest 5
Protocol: as §1, §2, §3, §4, §5, §6

MDCK cells [5] = test: Trial 1 acute toxicity assay of PMD; details: PMD 2%, 0.5%, 0.25% and 0.1% w/v
Protocol: The toxicity of PMD at the following concentrations in cell maintenance media was determined on a cell line with MDCK cells: • 2.5 mg/ml (0.25% w/v) • 5 mg/ml (0.5% w/v) • 20 mg/ml (2% w/v)
A cell only control was also implemented by following the same procedure (steps 2-6), but substituting PMD with cell maintenance media.
Toxicity was determined by toxicity-induced CPE (cytopathic effect) observations, which was visually scored using microscopy techniques. Toxicity-induced CPE is characterised by burst or rounded cells, which have become dissociated from their neighbouring cells, or the presence of cellular debris. […]

## CC1CCC(C(C)(C)O)C(O)C1 (stereo not drawn) [PMD, p-menthane-3,8-diol]
[1]; HSV-1
  Effectiveness against the virus: effective
[1]; HSV-1, PMD 0.25% w/v, contact time 10 seconds
  Log reduction in viral titre: 0 −log10 TCID50/ml
[1]; HSV-1, PMD 0.25% w/v, contact time 30 seconds
  Log reduction in viral titre: 0 −log10 TCID50/ml
[1]; HSV-1, PMD 0.25% w/v, contact time 60 seconds (1 minute)
  Log reduction in viral titre: 0 −log10 TCID50/ml
[1]; HSV-1, PMD 0.25% w/v, contact time 300 seconds (5 minutes)
  Log reduction in viral titre: 0.5 −log10 TCID50/ml
[1]; HSV-1, PMD 0.5% w/v, contact time 10 seconds
  Log reduction in viral titre: 0 −log10 TCID50/ml
[1]; HSV-1, PMD 0.5% w/v, contact time 30 seconds
  Log reduction in viral titre: 0 −log10 TCID50/ml
[1]; HSV-1, PMD 0.5% w/v, contact time 60 seconds (1 minute)
  Log reduction in viral titre: 0 −log10 TCID50/ml
[1]; HSV-1, PMD 0.5% w/v, contact time 300 seconds (5 minutes)
  Log reduction in viral titre: 0 −log10 TCID50/ml
[1]; HSV-1, PMD 1% w/v, contact time 10 seconds
  Log reduction in viral titre: 0 −log10 TCID50/ml
[1]; HSV-1, PMD 1% w/v, contact time 30 seconds
  Log reduction in viral titre: 0.5 −log10 TCID50/ml
[1]; HSV-1, PMD 1% w/v, contact time 60 seconds (1 minute)
  Log reduction in viral titre: 0.5 −log10 TCID50/ml
[1]; HSV-1, PMD 1% w/v, contact time 300 seconds (5 minutes)
  Log reduction in viral titre: 1.5 −log10 TCID50/ml
[1]; HSV-1, PMD 1% w/v
  Kill rate: 0.3 −log10 TCID50/ml/min
[1]; HSV-1, PMD 2% w/v, contact time 10 seconds
  Log reduction in viral titre: 0 −log10 TCID50/ml
[1]; HSV-1, PMD 2% w/v, contact time 30 seconds
  Log reduction in viral titre: 0 −log10 TCID50/ml
[1]; HSV-1, PMD 2% w/v, contact time 60 seconds (1 minute)
  Log reduction in viral titre: 0.5 −log10 TCID50/ml
[1]; HSV-1, PMD 2% w/v, contact time 300 seconds (5 minutes)
  Log reduction in viral titre: 2.5 −log10 TCID50/ml
[1]; HSV-1, PMD 2% w/v
  Kill rate: 0.5 −log10 TCID50/ml/min
[1]; PMD 0.25% w/v and 0.5% w/v
  Antiviral activity: did not exhibit any antiviral activity
[1]; PMD 1% w/v and 2% w/v, 5 minute contact time
  Reduction in viral titre (significance): Significant reduction in viral titre
[1]; all other concentrations and contact times
  Reduction in viral titre (significance): no significant reduction in viral titre
[1]; contact time of 5 minutes
  PMD concentration desirable for a significant effect: at least 1 % w/v
Vero cells; PMD 0.25% w/v
  Percentage cell survival: 65%
Vero cells; PMD 0.5% w/v
  Percentage cell survival: 65%
Vero cells; PMD 2% w/v
  Percentage cell survival: 100%
[2]
  Viral replication as evidenced by cell survival: no viral replication
[2]; PMD 0.5%, 0.25% and 0.1%, MDCK cells (cells were killed)
  Virucidal effect: no virucidal effect
Urbani SARS; PMD 0.25%, 10 seconds' exposure
  Antiviral effect: effective
Urbani SARS; Urbani SARS
  Effectiveness against the virus: effective
Urbani SARS; Urbani SARS, PMD 0.25% w/v, contact time 10 seconds
  Log reduction in viral titre: 1 −log10 TCID50/ml
Urbani SARS; Urbani SARS, PMD 0.25% w/v, contact time 30 seconds
  Log reduction in viral titre: 2 −log10 TCID50/ml
Urbani SARS; Urbani SARS, PMD 0.25% w/v, contact time 60 seconds (1 minute)
  Log reduction in viral titre: 1.5 −log10 TCID50/ml
Urbani SARS; Urbani SARS, PMD 0.25% w/v, contact time 300 seconds (5 minutes)
  Log reduction in viral titre: 2 −log10 TCID50/ml
Urbani SARS; Urbani SARS, PMD 0.25% w/v
  Kill rate: 4.0 −log10 TCID50/ml/min
Urbani SARS; Urbani SARS, PMD 0.5% w/v, contact time 10 seconds
  Log reduction in viral titre: 1.5 −log10 TCID50/ml
Urbani SARS; Urbani SARS, PMD 0.5% w/v, contact time 30 seconds
  Log reduction in viral titre: 2.5 −log10 TCID50/ml
Urbani SARS; Urbani SARS, PMD 0.5% w/v, contact time 60 seconds (1 minute)
  Log reduction in viral titre: 2.5 −log10 TCID50/ml
Urbani SARS; Urbani SARS, PMD 0.5% w/v, contact time 300 seconds (5 minutes)
  Log reduction in viral titre: 2.5 −log10 TCID50/ml
Urbani SARS; Urbani SARS, PMD 0.5% w/v
  Kill rate: 6.0 −log10 TCID50/ml/min
Urbani SARS; Urbani SARS, PMD 1% w/v, contact time 10 seconds
  Log reduction in viral titre: 2 −log10 TCID50/ml
Urbani SARS; Urbani SARS, PMD 1% w/v, contact time 30 seconds
  Log reduction in viral titre: 1.5 −log10 TCID50/ml
Urbani SARS; Urbani SARS, PMD 1% w/v, contact time 60 seconds (1 minute)
  Log reduction in viral titre: 2 −log10 TCID50/ml
Urbani SARS; Urbani SARS, PMD 1% w/v, contact time 300 seconds (5 minutes)
  Log reduction in viral titre: 1.5 −log10 TCID50/ml
Urbani SARS; Urbani SARS, PMD 1% w/v
  Kill rate: 6.0 −log10 TCID50/ml/min
Urbani SARS; Urbani SARS, PMD 2% w/v, contact time 10 seconds
  Log reduction in viral titre: 1.5 −log10 TCID50/ml
Urbani SARS; Urbani SARS, PMD 2% w/v, contact time 30 seconds
  Log reduction in viral titre: 1 −log10 TCID50/ml
Urbani SARS; Urbani SARS, PMD 2% w/v, contact time 60 seconds (1 minute)
  Log reduction in viral titre: 1.5 −log10 TCID50/ml
Urbani SARS; Urbani SARS, PMD 2% w/v, contact time 300 seconds (5 minutes)
  Log reduction in viral titre: 1.5 −log10 TCID50/ml
Urbani SARS; Urbani SARS, PMD 2% w/v
  Kill rate: 6.0 −log10 TCID50/ml/min
Urbani SARS; all four concentrations, all contact times
  Reduction in viral titre (significance): significant reductions in viral titre
C1008 cells; C1008, PMD 0.25% w/v
  Percentage cell survival: 80%
C1008 cells; C1008, PMD 0.5% w/v
  Percentage cell survival: 60%
C1008 cells; C1008, PMD 2% w/v
  Percentage cell survival: 100%
[3]; 10 seconds' contact time
  PMD concentration desirable for a significant antiviral action: at least 1 % w/v
[3]; A/Sydney/5/97, PMD 0.25% w/v, contact time 10 seconds
  Log reduction in viral titre: 0.4 −log10 TCID50/ml
[3]; A/Sydney/5/97, PMD 0.25% w/v, contact time 30 seconds
  Log reduction in viral titre: 1.9 −log10 TCID50/ml
[3]; A/Sydney/5/97, PMD 0.25% w/v, contact time 60 seconds (1 minute)
  Log reduction in viral titre: 1.9 −log10 TCID50/ml
[3]; A/Sydney/5/97, PMD 0.25% w/v, contact time 300 seconds (5 minutes)
  Log reduction in viral titre: 1.4 −log10 TCID50/ml
[3]; A/Sydney/5/97, PMD 0.25% w/v
  Kill rate: 4.5 −log10 TCID50/ml/min
[3]; A/Sydney/5/97, PMD 0.5% w/v, contact time 10 seconds
  Log reduction in viral titre: 0.4 −log10 TCID50/ml
[3]; A/Sydney/5/97, PMD 0.5% w/v, contact time 30 seconds
  Log reduction in viral titre: 1.9 −log10 TCID50/ml
[3]; A/Sydney/5/97, PMD 0.5% w/v, contact time 60 seconds (1 minute)
  Log reduction in viral titre: 2.4 −log10 TCID50/ml
[3]; A/Sydney/5/97, PMD 0.5% w/v, contact time 300 seconds (5 minutes)
  Log reduction in viral titre: 1.9 −log10 TCID50/ml
[3]; A/Sydney/5/97, PMD 0.5% w/v
  Kill rate: 4.8 −log10 TCID50/ml/min
[3]; A/Sydney/5/97, PMD 1% w/v, contact time 10 seconds
  Log reduction in viral titre: 1.9 −log10 TCID50/ml
[3]; A/Sydney/5/97, PMD 1% w/v, contact time 30 seconds
  Log reduction in viral titre: 2.4 −log10 TCID50/ml
[3]; A/Sydney/5/97, PMD 1% w/v, contact time 60 seconds (1 minute)
  Log reduction in viral titre: 2.4 −log10 TCID50/ml
[3]; A/Sydney/5/97, PMD 1% w/v, contact time 300 seconds (5 minutes)
  Log reduction in viral titre: 2.4 −log10 TCID50/ml
[3]; A/Sydney/5/97, PMD 1% w/v
  Kill rate: 12.0 −log10 TCID50/ml/min
[3]; A/Sydney/5/97, PMD 2% w/v, contact time 10 seconds
  Log reduction in viral titre: 1.9 −log10 TCID50/ml
[3]; A/Sydney/5/97, PMD 2% w/v, contact time 30 seconds
  Log reduction in viral titre: 2.4 −log10 TCID50/ml
[3]; A/Sydney/5/97, PMD 2% w/v, contact time 60 seconds (1 minute)
  Log reduction in viral titre: 2.4 −log10 TCID50/ml
[3]; A/Sydney/5/97, PMD 2% w/v, contact time 300 seconds (5 minutes)
  Log reduction in viral titre: 2.4 −log10 TCID50/ml
[3]; A/Sydney/5/97, PMD 2% w/v
  Kill rate: 12.0 −log10 TCID50/ml/min
[3]; PMD 1% w/v and 2% w/v, all contact time points
  Reduction of viral titre: 1.9-2.4 log10 TCID50/ml
[3]; all concentrations tested, except 0.25% w/v and 0.5% w/v at the 10 second contact time
  Reduction of infection (significance): significantly reduces
[3]; influenza virus A/Sydney/5/97
  Effectiveness against the virus: effective
[3]; the two lower concentrations (0.25%, 0.5% w/v), 30 second to 5 minute contact times
  Reduction of viral titre: 1.9-2.4 log10 TCID50/ml
Solubility in water
  Solubility in water: poorly soluble
MDCK cells [4]; PMD 0.25% w/v
  Percentage cell survival: 40%
MDCK cells [4]; PMD 0.5% w/v
  Percentage cell survival: 100%
MDCK cells [4]; PMD 2% w/v
  Percentage cell survival: 85%
MDCK cells [5]
  Toxicity on MDCK cells: do not exhibit toxicity
